{"source": "patent US6300519A", "about": "“Antivirally active heterocyclic azahexane derivatives” (Novartis Finance Corporation, priority 1996, dated 2001)", "key": {"[1]": {"test_system": "46I/47V/50V (VX478) strain", "assay": "Transient DNA transfection assay, strain 46I/47V/50V (VX478)", "format": "cell-based, HIV-1", "conditions": "1 nM", "excerpt": "(§1) By way of PCR-supported mutagenesis and cloning, HIV-1 protease mutants are generated that are based on the infectious clone pNL4-3 (freely available via the \"NIH AIDS reference and reagent program\", the original reference is A. Adachi et al. J. Virol (1986) 59, 284-91--but it can, of course, be any other HIV clone, or even clinical material, provided that comparability is ensured). […] The cloned fragments are, for example, only 500 base pairs in length, all of the remainder being unchanged. By using mutations in always the same clone, direct comparability is ensured, which would rot be the case in a direct comparison of clinical samples or of different HIV clones.\n(§2) That system is used as a transient DNA transfection system for tests:\n(§3) Instead of the strains mentioned, there may be used any human T4-positive cells, such as the HeLa T4 cells, deposited under that name by Richard Axel and Paul Maddon in \"NIH AIDS reference and reagent program\" and obtainable via that source."}, "[2]": {"test_system": "resistant variant (45I,76F strain)", "excerpt": "as §1, §2, §3"}}, "data": [{"smiles": "COC(=O)N[C@H](C(=O)N[C@@H](Cc1ccccc1)[C@@H](O)CN(Cc1ccc(-c2ccccn2)cc1)NC(=O)[C@@H](NC(=O)OC)C(C)(C)C)C(C)(C)C", "note": "[Example 46, 1-[4-(Pyridin-2-yl)-phenyl]-4(S)-hydroxy-5(S)-2,5-bis[N-(N-methoxycarbonyl-(L)-tert-leucyl)amino]-6-phenyl-2-azahexane]", "values": [{"measurement": "activity against strain 46I/47V/50V (VX478) compared with saquinavir, ritonavir and indinavir", "setting": "[1]", "value": "more potent (not quantified) than that of saquinavir, ritonavir and indinavir"}, {"measurement": "activity against a resistant variant (45I,76F strain) compared with saquinavir, indinavir, ritonavir", "setting": "[2]", "value": "comparable with saquinavir and better than that of indinavir (Merck & Co., Inc., see below) or ritonavir"}]}]}
